Like-named read-outs stand apart in the source and are kept apart here.
Key:
[1] = molecular target: His6-TEV-PDGFRβ (557-1016) (Homo sapiens (Human), UniProt P09619); assay: PDGFRβ HTRF Assay; assay type: biochemical; conditions: read-out: PDGFR HTRF IC50
Procedure, shortened: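 Human PDGFRβ (557-1016) pre-incubated with compound for 30 min at RT in pH 7.5 HEPES/MgCl2/EGTA/Brij-35/DTT buffer. Reaction started with ATP and TK-biotin peptide, run 3 h at RT, then quenched with EDTA-containing Eu-cryptate antibody/streptavidin-XL665. HTRF 665/620 nm ratio read after 60 min; percent inhibition relative to DMSO and 10 μM imatinib controls.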

[2] = molecular target: PDGFRβ (Rattus norvegicus (Rat), UniProt Q05030); assay: PDGFRβ Cellular Assay (PDGFRb P-Y751 HTRF in A10 cells stimulated with PDGF-BB); assay type: cell-based
Procedure, shortened: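 Rat A10 cells, plated overnight, were treated with compound for 3 hours, then stimulated with PDGF-BB (working stock 100 ng/mL in 10% FBS medium). After lysis, PDGFRβ P-Y751 was detected by HTRF.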

Chain of PDGFRβ (Q05030 32-1097): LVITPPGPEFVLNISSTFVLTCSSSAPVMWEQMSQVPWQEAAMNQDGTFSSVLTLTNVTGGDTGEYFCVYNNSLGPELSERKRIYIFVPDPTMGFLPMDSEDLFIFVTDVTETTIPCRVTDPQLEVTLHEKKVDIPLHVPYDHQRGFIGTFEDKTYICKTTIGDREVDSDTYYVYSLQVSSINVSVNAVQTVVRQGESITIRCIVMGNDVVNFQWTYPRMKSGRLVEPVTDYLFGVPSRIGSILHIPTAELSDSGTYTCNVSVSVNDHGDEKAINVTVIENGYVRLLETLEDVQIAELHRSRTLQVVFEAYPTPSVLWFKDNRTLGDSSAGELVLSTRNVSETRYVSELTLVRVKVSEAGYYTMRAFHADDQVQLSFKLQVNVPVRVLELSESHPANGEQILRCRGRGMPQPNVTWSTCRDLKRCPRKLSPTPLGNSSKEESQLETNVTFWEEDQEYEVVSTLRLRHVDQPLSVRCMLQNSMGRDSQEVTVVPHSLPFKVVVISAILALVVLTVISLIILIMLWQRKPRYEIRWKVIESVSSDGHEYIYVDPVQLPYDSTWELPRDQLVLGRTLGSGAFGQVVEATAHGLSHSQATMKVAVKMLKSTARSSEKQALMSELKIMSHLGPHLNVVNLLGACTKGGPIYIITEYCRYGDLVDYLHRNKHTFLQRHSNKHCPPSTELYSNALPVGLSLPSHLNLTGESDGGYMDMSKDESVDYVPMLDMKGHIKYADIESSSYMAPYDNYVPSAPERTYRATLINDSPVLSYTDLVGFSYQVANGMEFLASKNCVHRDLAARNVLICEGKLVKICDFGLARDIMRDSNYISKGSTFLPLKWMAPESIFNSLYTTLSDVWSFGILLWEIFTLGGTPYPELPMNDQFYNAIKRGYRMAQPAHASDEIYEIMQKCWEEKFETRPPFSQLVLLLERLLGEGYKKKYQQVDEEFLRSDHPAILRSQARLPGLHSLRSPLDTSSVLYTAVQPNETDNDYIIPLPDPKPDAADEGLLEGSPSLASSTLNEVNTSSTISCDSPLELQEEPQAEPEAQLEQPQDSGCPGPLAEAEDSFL
Chain of His6-TEV-PDGFRβ (557-1016) (P09619 557-1016): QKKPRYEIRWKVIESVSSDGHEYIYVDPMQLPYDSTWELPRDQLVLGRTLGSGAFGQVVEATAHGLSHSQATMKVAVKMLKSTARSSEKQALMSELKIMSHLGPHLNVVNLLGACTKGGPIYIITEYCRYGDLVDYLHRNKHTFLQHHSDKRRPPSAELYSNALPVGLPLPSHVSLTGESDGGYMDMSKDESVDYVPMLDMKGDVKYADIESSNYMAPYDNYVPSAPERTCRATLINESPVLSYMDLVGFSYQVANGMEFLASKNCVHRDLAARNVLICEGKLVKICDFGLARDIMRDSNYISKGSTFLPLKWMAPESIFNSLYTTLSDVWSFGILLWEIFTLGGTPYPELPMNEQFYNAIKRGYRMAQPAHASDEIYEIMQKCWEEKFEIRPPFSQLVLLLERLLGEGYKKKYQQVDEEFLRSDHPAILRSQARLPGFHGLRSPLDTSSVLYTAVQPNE

| Structure (SMILES) | IC50 [1] | IC50 ([2]; read-out: PDGFR Cellular IC50) | IC50 ([2]; PDGFR Cellular IC50) |
| --- | --- | --- | --- |
| Cc1ncc(NC(=O)CN2CC(C)(C)C2)cc1NC(=O)c1cnn2cc(-c3ccsc3)sc12 [Example 282, N-(5-(2-(3,3-dimethylazetidin-1-yl)acetamido)-2-methylpyridin-3-yl)-2-(thiophen-3-yl)pyrazolo[5,1-b]thiazole-7-carboxamide] | 0.1 nM | 0.9 nM |  |
| Cc1ncc(NC(=O)CC23CCCN2CCC3)cc1NC(=O)c1cnn2cc(-c3cnn(C)c3)sc12 [Example 302, 2-(1-methyl-1H-pyrazol-4-yl)-N-(2-methyl-5-(2-(tetrahydro-1H-pyrrolizin-7a(5H)-yl)acetamido)pyridin-3-yl)pyrazolo[5,1-b]thiazole-7-carboxamide] | 1.2 nM | 7 nM |  |
| Cc1ncc(NC(=O)CN2CC(C)(C)C2)cc1NC(=O)c1cnn2cc(-c3cnn(CC(C)O)c3)sc12 (stereo not drawn) [Example 281, N-(5-(2-(3,3-dimethylazetidin-1-yl)acetamido)-2-methylpyridin-3-yl)-2-(1-(2-hydroxypropyl)-1H-pyrazol-4-yl)pyrazolo[5,1-b]thiazole-7-carboxamide] | 0.4 nM | 10.9 nM |  |
| COc1ncccc1-c1cn2ncc(C(=O)Nc3cc(NC(=O)C4CCCCN4C(C)C)cnc3C)c2s1 (stereo not drawn) [Example 315, N-(5-(1-isopropylpiperidine-2-carboxamido)-2-methylpyridin-3-yl)-2-(2-methoxypyridin-3-yl)pyrazolo[5,1-b]thiazole-7-carboxamide] | 0.3 nM | 5.4 nM |  |
| Cc1ncc(NC(=O)CN2CC(C)(C)C2)cc1NC(=O)c1cnn2cc(-c3ccc(C4(O)COC4)cc3)sc12 [Example 272, N-(5-(2-(3,3-dimethylazetidin-1-yl)acetamido)-2-methylpyridin-3-yl)-2-(4-(3-hydroxyoxetan-3-yl)phenyl)pyrazolo[5,1-b]thiazole-7-carboxamide] | 0.2 nM | 5.6 nM |  |
| COc1ncccc1-c1cn2ncc(C(=O)Nc3cc(NC(=O)CN4CCC5(CCOC5)C4)cnc3C)c2s1 (stereo not drawn) [Example 320, N-(5-(2-(2-oxa-7-azaspiro[4.4]nonan-7-yl)acetamido)-2-methylpyridin-3-yl)-2-(2-methoxypyridin-3-yl)pyrazolo[5,1-b]thiazole-7-carboxamide] | 0.2 nM | 1.6 nM |  |
| Cc1ncc(NC(=O)CN2CC(C)(C)C2)cc1NC(=O)c1cnn2cc(-c3cnn(CC4CC4)c3)sc12 [Example 270, 2-(1-(cyclopropylmethyl)-1H-pyrazol-4-yl)-N-(5-(2-(3,3-dimethylazetidin-1-yl)acetamido)-2-methylpyridin-3-yl)pyrazolo[5,1-b]thiazole-7-carboxamide] | 0.4 nM | 4.8 nM |  |
| COCCn1cc(-c2cn3ncc(C(=O)Nc4cc(NC(=O)CN5CCCC5(C)C)cnc4C)c3s2)cn1 [Example 329, N-(5-(2-(2,2-dimethylpyrrolidin-1-yl)acetamido)-2-methylpyridin-3-yl)-2-(1-(2-methoxyethyl)-1H-pyrazol-4-yl)pyrazolo[5,1-b]thiazole-7-carboxamide] | 0.5 nM |  | 4.4 nM |
| Cc1ncc(NC(=O)CN2CCc3ccncc3C2)cc1NC(=O)c1cnn2cc(-c3cnn(C)c3)sc12 [Example 23, N-(5-(2-(3,4-dihydro-2,7-naphthyridin-2 (1H)-yl)acetamido)-2-methylpyridin-3-yl)-2-(1-methyl-1H-pyrazol-4-yl)pyrazolo[5,1-b]thiazole-7-carboxamide] | 0.7 nM |  | 67.7 nM |
